Results taken from PMC10073473, “Integrative omics-analysis of lipid metabolism regulation by peroxisome proliferator-activated receptor a and b agonists in male Atlantic cod” (Frontiers in Physiology, 2023).

Biological target: T1, Pparb (gmPparb) (Gadus morhua, UniProt A0A8C4ZA29)
T1 construct: gene PPARD
T1 sequence (A0A8C4ZA29 216-511 limits assumed): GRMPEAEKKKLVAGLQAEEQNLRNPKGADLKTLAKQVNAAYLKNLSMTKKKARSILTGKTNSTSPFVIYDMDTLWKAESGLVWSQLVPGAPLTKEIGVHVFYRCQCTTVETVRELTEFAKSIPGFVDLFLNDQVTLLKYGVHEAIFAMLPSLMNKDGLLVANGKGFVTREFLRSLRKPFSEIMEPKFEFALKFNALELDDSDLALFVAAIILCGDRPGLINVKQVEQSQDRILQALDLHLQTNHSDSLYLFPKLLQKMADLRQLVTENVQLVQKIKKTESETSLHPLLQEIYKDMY
Experiment: GAL4-LBD luciferase reporter gene assay in COS-7 cells
Format: cell-based

With `Cc1cc(SCc2sc(-c3ccc(C(F)(F)F)cc3)nc2C)ccc1OCC(=O)O` [GW501516, 2-[2-Methyl-4-[[[4-methyl-2-[4-(trifluoromethyl)phenyl]-5-thiazolyl]methyl]thio]phenoxy]-acetic acid] the EC50 was 5.9 µM.
